This is an account of results in patent US6986997B1, “Method for screening using an OAT1 transporter protein” (Fuji Bio Medix Co., Ltd., priority 1997, dated 2006).

Read-outs that look alike come from different tables or passages of the source.

In series [1] the test system is basolateral organic anion transport system. Conditions: Ullrich and Rumrich, Am. J. Physiol. 254, F453-462, 1988; read-out: Km value previously reported for the basolateral organic anion transport system; cited from earlier work.
Series [2] addresses T1, rat OAT1 (Rattus norvegicus, UniProt O35956).
T1 construct: with full-length OAT1 cDNA labeled with; expressed in transfected cells; host or cells: Xenopus laevis oocytes injected with in vitro transcribed cRNA
T1 sequence (O35956 1-551): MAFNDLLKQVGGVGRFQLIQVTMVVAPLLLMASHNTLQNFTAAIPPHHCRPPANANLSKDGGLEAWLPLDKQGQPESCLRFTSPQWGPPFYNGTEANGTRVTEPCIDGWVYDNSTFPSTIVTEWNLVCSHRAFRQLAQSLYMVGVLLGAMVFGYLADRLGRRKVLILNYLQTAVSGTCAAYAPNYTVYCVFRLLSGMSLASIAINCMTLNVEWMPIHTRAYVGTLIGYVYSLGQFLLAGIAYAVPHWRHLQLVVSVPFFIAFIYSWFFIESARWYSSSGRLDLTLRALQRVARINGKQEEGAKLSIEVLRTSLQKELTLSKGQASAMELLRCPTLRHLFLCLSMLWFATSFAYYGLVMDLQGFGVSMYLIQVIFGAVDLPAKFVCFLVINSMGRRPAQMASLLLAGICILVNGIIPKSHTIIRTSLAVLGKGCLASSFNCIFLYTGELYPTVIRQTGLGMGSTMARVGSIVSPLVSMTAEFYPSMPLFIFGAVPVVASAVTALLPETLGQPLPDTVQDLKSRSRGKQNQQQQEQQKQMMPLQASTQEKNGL
Nature of the series: Uptake of radio labeled substances into oocytes expressing OAT1. Type of series: cell-based. The text has this: Several radio labeled compounds were examined whether they are taken up into oocytes via OAT1.
Control oocytes were those which were not injected with cRNA.

In series [3] the target is T1, rat OAT1. The series is described as follows: Cis-inhibition of 14C-PAH uptake in oocytes injected with rat OAT1 cRNA. Type of series: cell-based. The settings on record: 2 μM 14C-PAH, 2 mM non-labeled substance, ND96 solution; for inhibition at 1 h, 2 mM: rat, oocytes injected with rat OAT1 cRNA, probe 14C-PAH (p-aminohippurate), read-out: inhibition of OAT1-mediated 14C-PAH uptake.

Setting [4] is: versus control oocytes not injected with cRNA.

With `Nc1ccc(C(=O)NCC(=O)O)cc1` [PAH, para-aminohippurate], in series [1], the Km was 80 µM.

For the compound `C[C@H](CCC(=O)NCCS(=O)(=O)O)[C@H]1CC[C@H]2[C@@H]3[C@H](O)C[C@@H]4C[C@H](O)CC[C@]4(C)[C@H]3C[C@H](O)[C@]12C` [^3H-taurocholic acid, taurocholic acid], the “transport of radio labeled substance into oocytes expressing OAT1” value (shortened to “transport”) at rat OAT1 [2] was “not detected”.

As for `CC[N+](CC)(CC)CC` [^14C-TEA, tetraethylammonium, reference compound], the “transport” value at rat OAT1 [2] (setting [4]) was “not detected”. As to `Nc1ncnc2c1ncn2[C@@H]1O[C@@H]2COP(=O)(O)O[C@H]2[C@H]1O` [cyclic-AMP], the “cis-inhibitory effect on OAT1-mediated 14C-PAH uptake (in words)” value (“cis-inhibitory effect” for short) on rat OAT1 [3] is given as “inhibited”. Moreover, the “transport” value at rat OAT1 [2] was “transported”. `Nc1nc2c(ncn2[C@@H]2O[C@@H]3COP(=O)(O)O[C@H]3[C@H]2O)c(=O)[nH]1` [cyclic-GMP]: the “cis-inhibitory effect” value on rat OAT1 [3] is on record as “inhibited”. For the same compound, the “transport” value on rat OAT1 [2] (setting [4]) is recorded as “transported”.

Take `C=C(CC)C(=O)c1ccc(OCC(=O)O)c(Cl)c1Cl` [ethacrynic acid]: at rat OAT1 [3], the inhibition at 1 h, 2 mM was > 85%. Still for that read-out and setting: the same measure for `COc1ccc2c(c1)c(CC(=O)O)c(C)n2C(=O)c1ccc(Cl)cc1` [indomethacin]: > 85%; for `CCn1cc(C(=O)O)c(=O)c2ccc(C)nc21` [nalidixic acid]: > 85%. As for `O=c1[nH]c(=O)c2[nH]c(=O)[nH]c2[nH]1` [uric acid], on rat OAT1 [3], the “cis-inhibitory effect” value is on record as “inhibited”. Moreover, at rat OAT1 [2] (setting [4]), the “transport” value is “transported”.

For the compound `CCCC(CCC)C(=O)O` [valproic acid], the inhibition at 1 h, 2 mM at rat OAT1 [3] was > 85%.

As a reminder, the Km is the concentration of substrate that gives half-maximal velocity. As a reminder, the inhibition is the drop in the measured response relative to a control, in per cent.
